Measurements as given in publication PMC9182405, “Rapid Screening of Lipase Inhibitors in Scutellaria baicalensis by Using Porcine Pancreatic Lipase Immobilized on Magnetic Core–Shell Metal–Organic Frameworks” (Molecules, 2022).

How the values were obtained:
[1] = target: T1, porcine pancreatic lipase (PPL) (Sus scrofa, UniProt P00591); test: p-nitrophenol ester hydrolysis assay, absorbance at […] nm, free PPL; also ligand fishing with immobilized PPL; format: biochemical
T1 construct: gene PNLIP

[2] = target: T1, porcine pancreatic lipase (PPL); test: p-nitrophenol ester hydrolysis assay, absorbance at […] nm, free PPL; in ligand fishing some nonspecific adsorption to blank MMOF; format: biochemical

T1 sequence (P00591 whole entry): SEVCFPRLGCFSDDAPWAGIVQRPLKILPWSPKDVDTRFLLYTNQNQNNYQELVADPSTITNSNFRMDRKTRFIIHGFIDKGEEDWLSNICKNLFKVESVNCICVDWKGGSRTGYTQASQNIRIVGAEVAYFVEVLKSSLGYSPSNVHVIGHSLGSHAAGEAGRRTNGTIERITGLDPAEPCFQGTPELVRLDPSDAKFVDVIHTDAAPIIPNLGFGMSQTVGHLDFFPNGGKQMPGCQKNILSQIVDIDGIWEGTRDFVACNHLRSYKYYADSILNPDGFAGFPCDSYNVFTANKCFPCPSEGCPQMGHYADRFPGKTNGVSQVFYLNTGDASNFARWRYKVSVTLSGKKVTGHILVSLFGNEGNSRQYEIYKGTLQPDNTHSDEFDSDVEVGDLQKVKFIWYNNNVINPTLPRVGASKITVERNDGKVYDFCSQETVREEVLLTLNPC

SMILES	IC50 [1] [µM]	IC50 [2] [µM]
COc1c(O)cc2oc(-c3ccccc3)cc(=O)c2c1O [compound 8, Oroxylin A]	82.7 ± 3.6	
O=C(O)[C@H]1O[C@@H](Oc2cc3oc(-c4ccccc4)cc(=O)c3c(O)c2O)[C@H](O)[C@@H](O)[C@@H]1O [compound 3, Baicalin]	242 ± 5.6	
COc1c(O)cc(O)c2c(=O)cc(-c3ccccc3)oc12 [compound 7, Wogonin]		168 ± 8.4
